A word on the Ki: it is a measure of affinity in units of concentration, obtained from inhibition or displacement.

Experimental findings from patent publication US12577232B2, “N-heterocycle substituted tryptamine derivatives and methods of using” (ENVERIC B[…] INC., priority 2024, dated 2026) are described below.

Where two headings read alike, the source gives them in different places.

Test [1] addresses T1, human serotonin transporter (SERT) (Homo sapiens, UniProt P31645).
T1 construct: purchased PerkinElmer RBHSTM400UA
Description: biochemical. The test is classed as binding. As for the experimental part: A commonly applied SERT binding assay involves competition binding assays employing radiolabelled ligands. […] Radioactive binding assays were carried out using the Scintillation Proximity Assay (SPA). For saturation binding assay, mixtures of 9 μg of membrane containing human SERT was pre-coupled to 1 mg of SPA beads at room temperature in a tube rotator for 1 hour in binding buffer (50 mM Tris-HCl pH7.4, 120 mM NaCl, 5 mM KCl, 1 mM ascorbic acid, 10 μM pargyline HCl). […] After incubation, the samples are read on a MicroBeta 2 Microplate Counter. Non-specific binding was carried out in the presence of 200 μM of clomipramine hydrochloride (C7291-1G, Sigma). Equilibrium binding constant for imipramine (KD) was determined from saturation binding curve using one-site saturation binding analysis from GraphPad PRISM software (Version 9.2.0). All test compounds were dissolved to 100 mM in DMSO and dilutions were carried out in assay buffer. […] Ki values were calculated from the competition displacement data using the competitive binding analysis from GraphPad PRISM software. […] Vehicle (DMSO) without drug was used as a negative control.

The target in test [2] is T2, 5-HT2A receptor (Homo sapiens, UniProt P28223).
T2 construct: purchased PerkinElmer ES-313-M400UA
Description: 5-HT2A receptor radioligand competition assay (SPA, [3H]ketanserin). Conditions: 1 nM [3H]ketanserin, membranes containing 5-HT2A. The test is classed as binding. As for the experimental part:
Competition assays were performed as for 5-HT1A assays with the following differences. […] Determination of non-specific binding was carried out in the presence of […] of spiperone (S7395-250MG, Sigma-Aldrich). Equilibrium binding constant for ketanserin (Kd) was determined from saturation binding curves using the ‘one-site saturation binding analysis’ method in GraphPad PRISM software (Version 9.2.0).
In general terms: Loss of bound radioactivity is the signal in a displacement assay; it reports binding, not function.

Test [3] relates to human model (NT2) neurons. Description: Neuroplastogenicity (neurite outgrowth) assay in NT2 neurons. The test is classed as cell-based. On the set-up: key: a positive (+) designation indicating strong evidence of enhanced neurite outgrowth in drug-treated NT2 cells compared to vehicle-treated cells; a negative (−) designation indicating weak or no evidence of enhanced neurite outgrowth in drug-treated NT2 cells compared to vehicle-treated cells. Conditions: 1 or 10 μM, 48 h, visual inspection vs vehicle (0.1% DMSO). The source says:
Classic psychedelics such as psilocybin and DMT show potential to treat anxiety and depression, and it has been theorized that such long-term improvements arise because these drugs rapidly and lastingly stimulate neuroplasticity (Calder and Hasler, 2023, Neuropsychopharmacol. 48:104-112). Thus, it was of interest to determine the potential of new compounds as neuroplastogens. Herein, we assess the capacity of various compounds to enhance neurite outgrowth in human model (NT2) neurons.
Human NT2/D1 precursor cells were purchased from the American Type Culture Collection (ATCC, Manassas, VA, USA). Neuronal differentiation was carried out as previously described (Roloff et al., 2015, PloS ONE 10:e0118536) with minor modifications. Firstly, NT2/D1 cells were seeded in T-25 suspension culture flasks (REF #690190, Greiner bio-one, Germany). Each flask contains a minimum of 5×10^6 cells in 10 ml of DMEM/F12 supplemented with 10% fetal bovine serum (FBS), 1% penicillin and streptomycin and 10 μM retinoic acid (RA) medium to start neuronal differentiation. The cells were cultured for 3 days in free floating medium. At the end of the incubation cells were trypsinized and collected by centrifugation, mechanically dispersed, and counted. Counted cells were seeded along Poly D-Lysine (PDL) coated cover slips (12 mm; diameter round, Fisher Scientific; GG-12-PDL) containing a minimum of 0.1×10^5 cells in culture medium without RA. The next day culture medium was replaced with RA medium containing 2% of FBS. These cells cultured for 5 days and two days later, RA medium was changed.
After cells had successfully attached and established along coverslips, the RA medium was replaced with new medium containing 2% FBS and one of the following: (1) test compound (1 or 10 μM), (2) RhoK (ROCK) inhibitor Y-27632 (1 μM) as a positive control (Dihydrochloride; Sigma-Aldrich) (Roloff et al., 2015, PloS ONE 10:e0118536); (3) DMT (1 or 10 μM) as a positive control (Calder and Hasler, 2023, Neuropsychopharmacol. 48:104-112), or (4) vehicle (0.1% DMSO) as a negative control. These cells were incubated for 48 hours under standard conditions (370C, 5% CO2). The cells cultured along coverslips were collected after 48 hours of treatment. The coverslips washed with calcium chloride and magnesium chloride-free phosphate buffered saline (PBS) pH 7.4 (Gibco, #70011-044) and fixed in paraformaldehyde (PFA) 4% in PBS (#J61899, thermoscientific) for 15 min at room temperature (RT) and washed three times with 0.01% of Triton-X100 in PBS (PBST) to remove remaining PFA and to permeabilize the cells. Non-specific binding sites were blocked with 5% of Bovine Serum Albumin (BSA) solution (#9048-46-8, Millipore) in PBST for 60 minutes at RT. Rabbit monoclonal antibody β-III-tubulin (1:5,000, ab52623, Abcam) was applied overnight (O/N) at 4° C. Next day cells are washed three times in PBST, neurons were incubated with secondary antibody Donkey anti-rabbit IgG(H+L) Alexa Fluor™ Plus488 (1:5000 #A32790, Invitrogen) for 1 hour at RT. These coverslips were mounted on Gluoromount-G™, with 4′6-diamidino-2′henylindoldihydrochloride (DAPI) (#E141818, Invitrogen). The immunofluorescence images were analyzed using an Olympus VS110 slide scanner microscope.
B-III-Tubulin immunofluorescence was quantified using ImageJ. Briefly, Corrected Total Cell Fluorescence (CTCF) was acquired for at least ˜8-10 representative cells, where CTCF=Integrated Density−[Area of selected cell*Mean Fluorescence of background]. The CTCF values, referred to herein as ‘signal intensities’, were used to calculate overall means±SD for each treatment. One-Way ANOVA was used to compare treatments. Further, the mean of each treatment was compared with the mean of the control treatment (RA-differentiated cells treated with vehicle, 0.1% DMSO) using Dunnett's multiple comparison procedure. […]

For test [4], the target named is T3, 5-HT1A receptor (Homo sapiens, UniProt P08908).
T3 construct: purchased Perkin Elmer 6110501400UA
T3 sequence (P08908 1-422): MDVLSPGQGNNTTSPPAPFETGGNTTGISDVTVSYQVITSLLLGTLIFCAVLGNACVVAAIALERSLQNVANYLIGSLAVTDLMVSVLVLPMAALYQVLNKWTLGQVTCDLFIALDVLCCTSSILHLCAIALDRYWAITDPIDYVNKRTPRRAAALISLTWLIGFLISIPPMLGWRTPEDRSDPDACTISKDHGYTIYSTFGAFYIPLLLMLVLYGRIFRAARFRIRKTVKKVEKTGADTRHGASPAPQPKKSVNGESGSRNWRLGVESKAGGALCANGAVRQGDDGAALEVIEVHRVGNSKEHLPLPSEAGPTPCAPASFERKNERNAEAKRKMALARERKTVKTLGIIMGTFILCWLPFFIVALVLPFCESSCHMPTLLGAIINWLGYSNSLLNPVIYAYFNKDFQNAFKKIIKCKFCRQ
Description: 5-HT1A receptor radioligand competition assay (SPA, [3H]8-hydroxy-DPAT). It counts as binding. Conditions: 0.5 nM hot 8-hydroxy-DPAT; membranes containing 5-HT1A. As for the experimental part: 5-HT1A receptor. […] After incubation, the samples were read on a MicroBeta 2 Microplate Counter (perkinelmer.com). Non-specific binding was carried out in the presence of 100 μM of metergoline (M3668-500MG, Sigma-Aldrich). Equilibrium binding constant for 8-hydroxy-DPAT (KD) was determined from a saturation binding curve using one-site saturation binding analysis from GraphPad PRISM software (Version 9.2.0). Test compound was dissolved to 100 mM in dimethylsulfoxide (DMSO), and dilutions were carried out in assay buffer. […] Ki values were calculated from the competition displacement data using the competitive binding analysis from GraphPad PRISM software. […] Conversely, blank preparations lacking any drug (simply termed ‘DMSO’ samples) were used as negative controls, in addition to those containing tryptophan which is not known to bind the 5-HT1A receptor.

Setting [5] is: 1 nM imipramine, membranes containing human SERT, read-out: SERT, Ki.

T1 sequence (P31645 whole entry): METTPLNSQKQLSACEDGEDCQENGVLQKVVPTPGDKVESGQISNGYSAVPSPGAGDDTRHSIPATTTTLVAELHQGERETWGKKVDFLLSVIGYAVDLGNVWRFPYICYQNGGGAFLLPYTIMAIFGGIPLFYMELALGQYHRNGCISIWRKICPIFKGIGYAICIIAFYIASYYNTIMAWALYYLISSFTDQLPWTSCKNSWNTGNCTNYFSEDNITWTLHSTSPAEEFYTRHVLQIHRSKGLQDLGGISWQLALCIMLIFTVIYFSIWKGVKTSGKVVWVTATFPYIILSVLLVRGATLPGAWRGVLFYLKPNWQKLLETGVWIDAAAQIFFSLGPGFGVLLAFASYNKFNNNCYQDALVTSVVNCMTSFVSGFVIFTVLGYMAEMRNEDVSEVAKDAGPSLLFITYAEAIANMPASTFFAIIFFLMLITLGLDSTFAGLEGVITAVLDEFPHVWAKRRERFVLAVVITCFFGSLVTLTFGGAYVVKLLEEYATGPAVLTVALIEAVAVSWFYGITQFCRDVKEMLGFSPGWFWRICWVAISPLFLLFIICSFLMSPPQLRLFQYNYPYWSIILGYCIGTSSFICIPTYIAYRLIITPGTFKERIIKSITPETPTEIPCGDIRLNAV
T2 sequence (P28223 whole entry): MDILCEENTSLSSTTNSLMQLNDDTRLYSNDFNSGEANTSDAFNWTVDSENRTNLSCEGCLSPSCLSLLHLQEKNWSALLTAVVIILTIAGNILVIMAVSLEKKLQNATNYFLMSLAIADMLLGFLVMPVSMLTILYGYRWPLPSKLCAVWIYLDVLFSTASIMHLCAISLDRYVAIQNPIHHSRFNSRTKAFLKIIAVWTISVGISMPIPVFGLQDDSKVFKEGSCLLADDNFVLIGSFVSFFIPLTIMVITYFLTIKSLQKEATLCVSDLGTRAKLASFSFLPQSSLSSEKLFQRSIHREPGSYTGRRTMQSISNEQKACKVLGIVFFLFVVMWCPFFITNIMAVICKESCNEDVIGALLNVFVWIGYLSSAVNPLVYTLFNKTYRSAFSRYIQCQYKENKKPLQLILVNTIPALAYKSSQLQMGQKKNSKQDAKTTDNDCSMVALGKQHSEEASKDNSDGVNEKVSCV

As to `COc1cc(CCN)c(OC)cc1Br` [Compound 2C-B, reference compound], in test [1] (setting [5]), the inhibition constant (Ki) was found to be 11.4 µM.
With `CN(C)CCc1c[nH]c2ccccc12` [DMT, dimethyltryptamine, reference compound], the Ki in test [2] (5-HT2A, Ki) was 1.03 µM; in test [1] (setting [5]), 2.58 µM. For the same compound, the “Evidence of neurite outgrowth: Yes (+) or No (−)” value in test [3] is “+”.
In the case of `CNC(C)Cc1ccc2c(c1)OCO2` (stereo not shown) [MDMA, 3,4-methylenedioxymethamphetamine, reference compound], the Ki in test [4] was 11 µM; in test [2] (read-out: 5-HT2A, Ki) it was 39.9 µM; in test [1], 5.8 µM.
